Consider 15 molecules from patent publication US10870652B2, “Compounds and methods for modulating bruton's tyrosine kinase” (CORVUS PHARMACEUTICALS, INC., priority 2016, dated 2020).

In general, IC50 refers to the concentration that gives 50% inhibition. A low value points to higher potency.

Common to all, as to format: biochemical
The target in one experiment is T1, ITK (Homo sapiens, UniProt Q08881).
T1 sequence (Q08881 1-620): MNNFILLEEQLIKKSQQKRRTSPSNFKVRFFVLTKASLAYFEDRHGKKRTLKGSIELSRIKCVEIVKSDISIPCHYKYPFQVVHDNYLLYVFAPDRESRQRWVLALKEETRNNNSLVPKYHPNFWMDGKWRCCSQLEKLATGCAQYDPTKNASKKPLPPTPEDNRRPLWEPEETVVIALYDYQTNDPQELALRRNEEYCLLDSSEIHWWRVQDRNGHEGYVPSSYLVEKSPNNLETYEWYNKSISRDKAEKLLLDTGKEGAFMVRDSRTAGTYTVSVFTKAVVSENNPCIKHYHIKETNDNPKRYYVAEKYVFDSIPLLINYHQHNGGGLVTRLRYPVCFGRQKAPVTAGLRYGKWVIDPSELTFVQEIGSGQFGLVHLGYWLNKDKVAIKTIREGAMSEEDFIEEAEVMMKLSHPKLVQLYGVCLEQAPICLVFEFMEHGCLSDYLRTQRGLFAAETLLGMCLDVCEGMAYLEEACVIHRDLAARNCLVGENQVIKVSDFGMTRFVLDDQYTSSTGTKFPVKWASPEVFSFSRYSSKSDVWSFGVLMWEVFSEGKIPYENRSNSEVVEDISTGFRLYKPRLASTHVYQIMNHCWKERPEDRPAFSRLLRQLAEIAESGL
The experiment can be described thus: ITK IC50 kinase inhibition assay.

A further experiment concerns the target T2, TXK (Homo sapiens, UniProt P42681).
T2 sequence (P42681 1-527): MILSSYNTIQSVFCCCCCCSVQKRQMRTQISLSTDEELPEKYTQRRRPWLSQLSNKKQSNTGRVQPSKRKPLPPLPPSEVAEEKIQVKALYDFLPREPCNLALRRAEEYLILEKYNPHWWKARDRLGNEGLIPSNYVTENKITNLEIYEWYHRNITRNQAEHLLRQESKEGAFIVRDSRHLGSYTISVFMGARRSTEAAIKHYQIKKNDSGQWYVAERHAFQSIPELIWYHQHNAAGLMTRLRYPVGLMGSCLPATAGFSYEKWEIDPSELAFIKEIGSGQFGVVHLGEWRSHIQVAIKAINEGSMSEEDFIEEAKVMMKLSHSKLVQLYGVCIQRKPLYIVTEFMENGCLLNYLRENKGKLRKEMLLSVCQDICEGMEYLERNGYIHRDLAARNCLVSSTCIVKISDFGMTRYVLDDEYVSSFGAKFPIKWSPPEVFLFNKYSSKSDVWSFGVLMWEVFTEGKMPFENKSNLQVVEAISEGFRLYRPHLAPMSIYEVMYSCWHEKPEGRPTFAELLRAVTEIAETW
The experiment is described as follows: TXK IC50 kinase inhibition assay.

For a further experiment, the target named is BTK (Homo sapiens, UniProt Q06187). The experiment can be described thus: BTK IC50 kinase inhibition assay.
The target of a further experiment is T3, JAK3 (Homo sapiens, UniProt P52333).
T3 sequence (P52333 1-1124): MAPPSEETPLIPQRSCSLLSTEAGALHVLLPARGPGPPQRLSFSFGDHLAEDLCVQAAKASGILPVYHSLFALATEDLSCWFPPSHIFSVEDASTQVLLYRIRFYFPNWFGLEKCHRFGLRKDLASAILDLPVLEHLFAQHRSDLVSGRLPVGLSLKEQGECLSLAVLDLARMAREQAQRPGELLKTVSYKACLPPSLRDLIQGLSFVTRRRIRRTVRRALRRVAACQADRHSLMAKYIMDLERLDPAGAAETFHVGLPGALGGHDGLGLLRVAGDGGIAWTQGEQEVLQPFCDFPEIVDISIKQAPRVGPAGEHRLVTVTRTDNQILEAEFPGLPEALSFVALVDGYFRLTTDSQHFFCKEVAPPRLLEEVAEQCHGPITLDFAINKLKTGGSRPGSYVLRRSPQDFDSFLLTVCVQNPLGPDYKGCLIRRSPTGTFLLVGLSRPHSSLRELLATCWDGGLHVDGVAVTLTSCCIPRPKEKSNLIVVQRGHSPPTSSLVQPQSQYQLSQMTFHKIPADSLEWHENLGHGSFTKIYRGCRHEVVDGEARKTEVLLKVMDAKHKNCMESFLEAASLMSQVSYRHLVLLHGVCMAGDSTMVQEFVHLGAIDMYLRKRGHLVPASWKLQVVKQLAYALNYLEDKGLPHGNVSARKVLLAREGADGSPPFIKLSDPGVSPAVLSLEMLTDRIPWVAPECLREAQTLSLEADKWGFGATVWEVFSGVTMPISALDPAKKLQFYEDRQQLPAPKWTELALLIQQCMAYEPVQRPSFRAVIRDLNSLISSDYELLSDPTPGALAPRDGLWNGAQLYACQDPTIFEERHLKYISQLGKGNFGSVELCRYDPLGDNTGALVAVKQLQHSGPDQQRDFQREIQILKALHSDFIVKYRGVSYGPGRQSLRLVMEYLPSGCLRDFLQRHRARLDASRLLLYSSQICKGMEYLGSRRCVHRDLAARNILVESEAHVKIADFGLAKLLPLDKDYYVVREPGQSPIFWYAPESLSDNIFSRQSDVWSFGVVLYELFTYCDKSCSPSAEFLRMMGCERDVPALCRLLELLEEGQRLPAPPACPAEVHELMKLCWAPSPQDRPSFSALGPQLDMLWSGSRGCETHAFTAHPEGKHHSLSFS
The experiment is described as follows: JAK3 IC50 kinase inhibition assay.

Sequence of BTK (Q06187 whole entry): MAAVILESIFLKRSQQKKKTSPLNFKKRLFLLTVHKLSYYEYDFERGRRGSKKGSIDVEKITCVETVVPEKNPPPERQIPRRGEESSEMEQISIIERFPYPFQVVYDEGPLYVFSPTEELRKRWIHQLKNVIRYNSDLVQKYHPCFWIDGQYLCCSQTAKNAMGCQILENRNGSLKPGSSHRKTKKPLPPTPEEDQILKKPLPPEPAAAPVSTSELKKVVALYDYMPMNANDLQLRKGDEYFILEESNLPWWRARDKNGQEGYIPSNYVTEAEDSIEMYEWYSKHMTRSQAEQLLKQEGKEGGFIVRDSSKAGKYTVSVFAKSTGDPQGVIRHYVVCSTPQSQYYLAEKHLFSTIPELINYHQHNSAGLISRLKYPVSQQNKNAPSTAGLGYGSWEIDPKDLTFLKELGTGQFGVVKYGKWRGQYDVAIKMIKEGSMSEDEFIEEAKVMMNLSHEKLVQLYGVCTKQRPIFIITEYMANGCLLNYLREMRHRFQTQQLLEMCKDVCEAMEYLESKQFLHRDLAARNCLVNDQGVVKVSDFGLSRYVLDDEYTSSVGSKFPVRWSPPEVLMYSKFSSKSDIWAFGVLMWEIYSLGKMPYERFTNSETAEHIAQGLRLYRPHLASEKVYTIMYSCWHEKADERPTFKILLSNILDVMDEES

As for `C=CC(=O)N1CCC[C@@]1(C)Cn1nc(-c2ccc(Oc3ccccc3)cc2)c2cncnc21` [Compound A45, (S)-1-(2-methyl-2-((3-(4-phenoxyphenyl)-1H-pyrazolo[3,4-d]pyrimidin-1-yl)methyl)pyrrolidin-1-yl)prop-2-en-1-one], the half-maximal inhibitory concentration (IC50) was > 0.5 µM against ITK, < 0.1 µM against TXK, < 0.1 µM on BTK and > 0.5 µM against JAK3.
As for `C=CC(=O)N1CCC[C@H]1Cn1nc(-c2ccc(Oc3cccc(CC)c3)cc2)c2cncnc21` [Compound A46, (S)-1-(2-((3-(4-(3-ethylphenoxy)phenyl)-1H-pyrazolo[3,4-d]pyrimidin-1-yl)methyl)pyrrolidin-1-yl)prop-2-en-1-one], the IC50 at ITK is > 0.5 µM; against TXK, < 0.1 µM; against BTK, < 0.1 µM; against JAK3 it was > 0.5 µM.
Take `C=CC(=O)N1CCC[C@H]1Cn1nc(-c2ccc(Oc3cccc(C(F)F)c3)cc2)c2cncnc21` [Compound A47, (S)-1-(2-((3-(4-(3-(difluoromethyl)phenoxy)phenyl)-1H-pyrazolo[3,4-d]pyrimidin-1-yl)methyl)pyrrolidin-1-yl)prop-2-en-1-one]: the IC50 on ITK is > 0.5 µM; against TXK it was < 0.1 µM; against BTK, < 0.1 µM; against JAK3 it was > 0.5 µM.
Turning to `C=CC(=O)N1CCC[C@H]1Cn1nc(-c2ccc(Oc3cccc(C)c3)cc2)c2cncnc21` [Compound A48, (S)-1-(2-((3-(4-(m-tolyloxy)phenyl)-1H-pyrazolo[3,4-d]pyrimidin-1-yl)methyl)pyrrolidin-1-yl)prop-2-en-1-one], the IC50 on ITK was > 0.5 µM; against TXK, < 0.1 µM; on BTK, < 0.1 µM; at JAK3 it was > 0.5 µM.
As for `C=CC(=O)N1CC(C)(C)C[C@H]1Cn1nc(-c2ccc(Oc3ccccc3)cc2)c2cncnc21` [Compound A49, (S)-1-(4,4-dimethyl-2-((3-(4-phenoxyphenyl)-1H-pyrazolo[3,4-d]pyrimidin-1-yl)methyl)pyrrolidin-1-yl)prop-2-en-1-one], the 50% inhibitory concentration (IC50) is > 0.5 µM against ITK, < 0.1 µM at TXK, < 0.1 µM on BTK and > 0.5 µM on JAK3.
`C=CC(=O)N1CCC[C@@H](n2nc(-c3ccc(Oc4c(F)cccc4F)cc3)c3cncnc32)C1` [Compound A50, (R)-1-(3-(3-(4-(2,6-difluorophenoxy)phenyl)-1H-pyrazolo[3,4-d]pyrimidin-1-yl)piperidin-1-yl)prop-2-en-1-one]: the IC50 at ITK is > 0.5 µM; on TXK, 0.1 to 0.5 µM; on BTK it was < 0.1 µM; against JAK3 it was > 0.5 µM.
As to `C=CC(=O)N1CC[C@H]1Cn1nc(-c2ccc(Oc3ccccc3)cc2)c2cncnc21` [Compound A51, (S)-1-(2-((3-(4-phenoxyphenyl)-1H-pyrazolo[3,4-d]pyrimidin-1-yl)methyl)azetidin-1-yl)prop-2-en-1-one], the half-inhibitory concentration (IC50) against ITK was > 0.5 µM; against TXK, < 0.1 µM; on BTK, < 0.1 µM; against JAK3, > 0.5 µM.
`C=CC(=O)N1CCC[C@@]1(C)Cn1nc(-c2ccc(Oc3ccccc3)cc2F)c2cncnc21` [Compound A52, (S)-1-(2-((3-(2-fluoro-4-phenoxyphenyl)-1H-pyrazolo[3,4-d]pyrimidin-1-yl)methyl)-2-methylpyrrolidin-1-yl)prop-2-en-1-one]: the IC50 against ITK is > 0.5 µM; at TXK it was < 0.1 µM; against BTK it was < 0.1 µM; against JAK3 it was > 0.5 µM.
In the case of `C=CC(=O)N1CC[C@@H]1Cn1nc(-c2ccc(Oc3ccccc3)cc2)c2cncnc21` [Compound A53, (R)-1-(2-((3-(4-phenoxyphenyl)-1H-pyrazolo[3,4-d]pyrimidin-1-yl)methyl)azetidin-1-yl)prop-2-en-1-one], the IC50 was > 0.5 µM against ITK, < 0.1 µM against TXK, < 0.1 µM against BTK and > 0.5 µM on JAK3.
On to `C=CC(=O)N1CCC2(CC1)CC(n1nc(-c3ccc(Oc4ccccc4)cc3)c3cncnc31)C2` [Compound A54, 1-(2-(3-(4-phenoxyphenyl)-1H-pyrazolo[3,4-d]pyrimidin-1-yl)-7-azaspiro[3.5]nonan-7-yl)prop-2-en-1-one], for which the IC50 on ITK, against TXK, on BTK and on JAK3 was > 0.5 µM throughout.
On to `C=CC(=O)N[C@H]1C[C@H](n2nc(-c3ccc(Oc4ccccc4)cc3)c3cncnc32)C1` [Compound A55, N-((1r,3r)-3-(3-(4-phenoxyphenyl)-1H-pyrazolo[3,4-d]pyrimidin-1-yl)cyclobutyl)acrylamide], for which the IC50 was > 0.5 µM at ITK, > 0.5 µM at TXK, 0.1 to 0.5 µM on BTK and > 0.5 µM on JAK3.
As for `C=CC(=O)N[C@H]1CC[C@H](n2nc(-c3ccc(Oc4ccccc4)cc3)c3cncnc32)CC1` [Compound A56, N-((1r,4r)-4-(3-(4-phenoxyphenyl)-1H-pyrazolo[3,4-d]pyrimidin-1-yl)cyclohexyl)acrylamide], the IC50 against ITK, against TXK, on BTK and at JAK3 was > 0.5 µM in each case.
In the case of `CC#CC(=O)N1CCC(Cn2nc(-c3ccc(Oc4ccccc4)cc3)c3cncnc32)CC1` [Compound A57, 1-(4-((3-(4-phenoxyphenyl)-1H-pyrazolo[3,4-d]pyrimidin-1-yl)methyl)piperidin-1-yl)but-2-yn-1-one], the IC50 against ITK, on TXK, on BTK and at JAK3 was > 0.5 µM throughout.
Take `CC#CC(=O)N1CC(Cn2nc(-c3ccc(Oc4ccccc4)cc3)c3cncnc32)C1` [Compound A58, 1-(3-((3-(4-phenoxyphenyl)-1H-pyrazolo[3,4-d]pyrimidin-1-yl)methyl)azetidin-1-yl)but-2-yn-1-one]: the concentration for half-maximal inhibition (IC50) against ITK, against TXK, on BTK and against JAK3 was > 0.5 µM throughout.
For the molecule `CC#CC(=O)N1CCC(n2nc(-c3ccc(Oc4ccccc4)cc3)c3cncnc32)CC1` [Compound A59, 1-(4-(3-(4-phenoxyphenyl)-1H-pyrazolo[3,4-d]pyrimidin-1-yl)piperidin-1-yl)but-2-yn-1-one], the half-inhibitory concentration (IC50) at ITK is > 0.5 µM; against TXK, > 0.5 µM; against BTK, 0.1 to 0.5 µM; at JAK3, > 0.5 µM.
